Where no end group is shown, it is not given here.

In assay [1] the target is MIP-R1 (I. scapularis myoinhibitory peptide receptor 1) (Ixodes scapularis, UniProt L7ZCA0). Briefly: cell-based.
The subject of assay [2] is synganglion. Particulars: ref Kaufman, 1978; McSwain et al., 1992; cited from earlier work.
The test system of assay [3] is SG acini. Particulars: paracrine factor; ref Kaufman et al., 1999; Šimo et al., 2011a; cited from earlier work.
In assay [4] the target is SIFa-R (I. scapularis SIFamide receptor) (Ixodes scapularis, UniProt L7Z4E7). Briefly: Receptor functional assay. In kind it is cell-based.

For ENHWNDLSGYW-NH2 [MIP3], a half-maximal response in assay [1] (EC50) required 15 nM. For `CC[C@@H]1C(=O)OC[C@@H]1Cc1cncn1C` [pilocarpine], the “activation of the synganglion” value in assay [2] is “activates the synganglion”. For the compound ASDWNRLSGMW-NH2 [MIP2], the EC50 in assay [1] was found to be 32 nM. On to `NCCc1ccc(O)c(O)c1` [Dopamine], for which, in assay [3], the “activation of SG acini” value is “acts as a paracrine factor for the activation of SG acini for fluid secretion”. In assay [1], GGDWNALSGMW-NH2 [MIP1] came in with an EC50 of 40 nM. In assay [4], AYRKPPFNGSIF-NH2 [SIFamide] came in with an EC50 of 5.8 nM. This lies in the single-digit nanomolar range.

The values are drawn from publication PMC3602366 (Insect biochemistry and molecular biology, 2013).
